# Tests used:
# Assay type in all cases: cell-based, human
# [1] = system: MIA PaCa-2 and PANC-1 cells; assay: RT-qPCR validation of down-regulated genes
# Description: The RNA-seq results are consistent with the hypothesis that G4 ligands can alter gene expression when PQs are targets in individual genes.[23] Previously, global G4-motif specific changes in the transcriptome with bisquinolinium compounds in HeLa cells have been reported using microarray analysis.[48] However, our work represents the first comprehensive analysis using state-of-the-art RNA-seq methodology. […] The observed transcriptional effects of CM03 also align with the hypothesis that down-regulation of gene expression is mediated through ligand-stabilized G4s, causing for example steric hindrance and inhibition of RNA pol II in the transcription bubble (reviewed in ref ([23])). The observations that transcriptional effects are closely aligned in two PDAC cell lines, independently sequenced, gives added confidence to these conclusions.
# MIA PaCa-2 (6 h = 2.5 × 10^6 and 24 h = 1.0 × 10^6 cells/well) and PANC-1 (6 h = 1.0 × 10^6 and 24 h = 0.5 × 10^6 cells/well) cell lines were seeded in 100 mm plates and incubated overnight. […] The concentration of harvested RNA was measured with a NanoDrop 2000/2000c spectrophotometer (ThermoFisher). […] The Ct values were normalized to the genomic mean of three housekeeping genes ACTB, GAPDH, and TUBB, and the fold change was determined using 2^–ΔΔCt.
# PANC-1 cells = assay: RNA-seq gene expression, PANC-1; details: for 1/2-SBSRNA4 logFC PANC-1 / A1BG logFC PANC-1 / A1BG-AS1 logFC PANC-1 / A2LD1 logFC PANC-1 / A4GALT logFC PANC-1: 300 nM gemcitabine
# Description: (§1) CM03 is a potent G4 ligand, as shown by the FRET and quantitative binding experiments reported here. We therefore reasoned that the potent CM03 antiproliferative activity on PDAC cells could be mediated through a G4-targeting mechanism. To test this hypothesis, we determined whether transcriptome changes upon early CM03 treatment were correlated with G4 presence in promoters and/or gene bodies. […] The time and dose of CM03 treatment were selected to reveal initial but robust mRNA changes while minimizing chronic effects due to cell toxicity. In both cell lines, the number of genes with altered expression (as defined by >0.5 increase in Log 2 of fold change [Log2 FC], or < −0.5 decrease; false discovery rate [FDR] < 0.1) increased with duration of CM03 treatment. In PANC-1 cells 2165 genes at 6 h and 3977 genes at 24 h were seen to change, while in MIA PaCa-2 cells, 5306 genes changed at 6 h and 5477 genes at 24 h compared to untreated controls (Supporting Information, Table 1). […] To validate that the targeting of G4-containing genes is not a general feature of antiproliferative agents, we also examined the effects of the first-line therapeutic agent for PDAC, gemcitabine,[37] a potent antiproliferative DNA synthesis inhibitor whose mechanism of action is G4-independent and which remains a standard therapy option in advanced PDAC. Both cell lines were treated with a range of gemcitabine concentrations (Supporting Information, Figure 4, Table 4) for 6 or 24 h.
# (§2) The PDAC cell lines PANC-1 (ATCC, catalogue no. CRL-1469) and MIA PaCa-2 (ATCC, catalogue no. CRL-142) were maintained in DMEM (ThermoFisher, catalogue no. 11965092) supplemented with 10% (v/v) heat inactivated FBS (ThermoFisher) in a humidified atmosphere containing 5% CO2 at 37 °C. Cell lines were confirmed mycoplasma free by RNA-capture ELISA, and their genotypes were certified by STR profiling.
# (§3) PANC-1 (0.35 × 10^6 cells/well) and MIA PaCa-2 (1.5 × 10^6 cells/well) cell lines were seeded overnight in 60 mm plates. Next day, cells were treated with 400 nM CM03 for 6 and 24 h. For gemcitabine treatment, cells were treated for 6 and 24 h with DMSO or 30 nM, 100 nM, 300 nM, 1 μM, 3 μM, and 10 μM gemcitabine-HCL for PANC-1 cells and 30 nM, 300 nM, and 3 μM gemcitabine-HCl for MIA PaCa-2 cells. Total RNA was extracted using the Qiagen RNeasy Plus Mini Kit (ThermoFisher, catalogue no. 74134) as per the manufacturer’s instructions. RNA quality (RIN > 9.0) was checked with an Aligent 2100 bioanalyzer RNA 6000 Nano Chip, and RNA concentration was quantified using a Qubit fluorometer (ThermoFisher) and Qubit RNA HS Assay Kit (Qiagen, catalogue no. Q32852). RNA-seq libraries were then generated using the Illumina Truseq RNA HT (stranded mRNA) kit (Illumina, catalogue no. RS-122–2103) as per the manufacturer’s instructions and sequenced using an Illumina HiSeq4000.
# (§4) Fastq raw sequencing files were preprocessed using cutadapt[81] to remove sequencing adapters and low quality sequencing tails (options −q 10) and then aligned to the human genome (GRCh37/hg19) using tophat2[82] and using the UCSC gtf file provided by Illumina iGenomes as an annotation file (http://support.illumina.com/sequencing/sequencing_software/igenome.html). Gene counts were calculated using htseq-count[83] and the same gtf file. Differential expression analysis was done using the R package edgeR.[84] Differentially expressed genes were estimated independently for both cell lines (MIA PaCa-2 and PANC-1) and for the different time points (6 and 24 h) and were then intersected to inspect the common genes. The sequencing data is available at the GEO public functional genomics data repository (https://www.ncbi.nlm.nih.gov/geo/) as GSE105083. Details of the putative G4 sequence (PQs) analysis are given in the Supporting Information.
# MIA PaCa-2 cells = assay: RNA-seq gene expression, MIA PaCa-2; details: for 1/2-SBSRNA4 logFC MIA PaCa-2 / A1BG logFC MIA PaCa-2 / A1BG-AS1 logFC MIA PaCa-2 / A2LD1 logFC MIA PaCa-2 / A4GALT logFC MIA PaCa-2: 300 nM gemcitabine
# Description: as §1, §2, §3, §4
smiles,measurement,setting,value
"O=C1c2ccc3c4c(c(NCCN5CCCC5)cc(c24)C(=O)N1CCCN1CCOCC1)C(=O)N(CCCN1CCOCC1)C3=O [CM03, 2,7-bis(3-morpholinopropyl)-4-((2-(pyrrolidin-1-yl)ethyl)amino)benzo[lmn][3,8]phenanthroline-1,3,6,8(2H,7H)-tetraone]",RT-qPCR expression of a small set of PDAC-pathway genes,"[1]; 400 nM CM03, 6 and 24 h",transcriptionally down-regulated in both cell lines
same,number of genes with altered expression,"PANC-1 cells; 400 nM CM03, 6 h, PANC-1, Log2 FC >0.5 or < −0.5, FDR < 0.1",2165
same,number of genes with altered expression,"PANC-1 cells; 400 nM CM03, 24 h, PANC-1",3977
same,A1BG Log FC ([6h] vs [Control]) PANC-1,"PANC-1 cells; RNA-seq, 400 nM CM03, 6 h",-0.2704
same,A1BG-AS1 Log FC ([6h] vs [Control]) PANC-1,"PANC-1 cells; RNA-seq, 400 nM CM03, 6 h",-1.747
same,A2LD1 Log FC ([6h] vs [Control]) PANC-1,"PANC-1 cells; RNA-seq, 400 nM CM03, 6 h",-0.1242
same,AAAS Log FC ([6h] vs [Control]) PANC-1,"PANC-1 cells; RNA-seq, 400 nM CM03, 6 h",-0.01012
same,AACS logFC 6h PANC-1,"PANC-1 cells; RNA-seq, 400 nM CM03, 6 h",-0.1667
same,A1BG Log FC ([24h] vs [Control]) PANC-1,"PANC-1 cells; RNA-seq, 400 nM CM03, 24 h",-0.2368
same,A2LD1 Log FC ([24h] vs [Control]) PANC-1,"PANC-1 cells; RNA-seq, 400 nM CM03, 24 h",-0.09987
same,AAAS Log FC ([24h] vs [Control]) PANC-1,"PANC-1 cells; RNA-seq, 400 nM CM03, 24 h",-0.5132
same,AACS logFC 24h PANC-1,"PANC-1 cells; RNA-seq, 400 nM CM03, 24 h",0.00469
same,1/2-SBSRNA4 Log FC ([6h] vs [Control]) MIA PaCa-2,"MIA PaCa-2 cells; 400 nM CM03, 6 h",0.2926
same,A1BG Log FC ([6h] vs [Control]) MIA PaCa-2,"MIA PaCa-2 cells; 400 nM CM03, 6 h",0.4876
same,A2LD1 Log FC ([6h] vs [Control]) MIA PaCa-2,"MIA PaCa-2 cells; 400 nM CM03, 6 h",-0.3929
same,AAAS Log FC ([6h] vs [Control]) MIA PaCa-2,"MIA PaCa-2 cells; 400 nM CM03, 6 h",-0.00561
same,AACS LogFC 6h MIA PaCa-2,"MIA PaCa-2 cells; 400 nM CM03, 6 h",0.2527
same,1/2-SBSRNA4 Log FC ([24h] vs [Control]) MIA PaCa-2,"MIA PaCa-2 cells; 400 nM CM03, 24 h",0.1438
same,A1BG Log FC ([24h] vs [Control]) MIA PaCa-2,"MIA PaCa-2 cells; 400 nM CM03, 24 h",-0.4265
same,A2LD1 Log FC ([24h] vs [Control]) MIA PaCa-2,"MIA PaCa-2 cells; 400 nM CM03, 24 h",0.03755
same,A4GALT Log FC ([24h] vs [Control]) MIA PaCa-2,"MIA PaCa-2 cells; 400 nM CM03, 24 h",0.6327
same,AAAS Log FC ([24h] vs [Control]) MIA PaCa-2,"MIA PaCa-2 cells; 400 nM CM03, 24 h",-0.483
same,AACS LogFC 24h MIA PaCa-2,"MIA PaCa-2 cells; 400 nM CM03, 24 h",-0.2395
"Nc1ccn([C@@H]2O[C@H](CO)[C@@H](O)C2(F)F)c(=O)n1 [gemcitabine, reference compound]",RT-qPCR expression of a small set of PDAC-pathway genes,"[1]; 400 nM gemcitabine, 6 and 24 h",not significantly affected
same,1/2-SBSRNA4 logFC PANC-1,"PANC-1 cells; RNA-seq, 6 h",0.2646
same,A1BG logFC PANC-1,"PANC-1 cells; RNA-seq, 6 h",-0.08914
same,A1BG-AS1 logFC PANC-1,"PANC-1 cells; RNA-seq, 6 h",0.1407
same,A2LD1 logFC PANC-1,"PANC-1 cells; RNA-seq, 6 h",-0.1053
same,A4GALT logFC PANC-1,"PANC-1 cells; RNA-seq, 6 h",0.005472
same,1/2-SBSRNA4 logFC PANC-1,"PANC-1 cells; RNA-seq, 24 h",0.6908
same,A1BG logFC PANC-1,"PANC-1 cells; RNA-seq, 24 h",-0.1465
same,A1BG-AS1 logFC PANC-1,"PANC-1 cells; RNA-seq, 24 h",1.012
same,A2LD1 logFC PANC-1,"PANC-1 cells; RNA-seq, 24 h",-0.7315
same,A4GALT logFC PANC-1,"PANC-1 cells; RNA-seq, 24 h",0.6241
same,1/2-SBSRNA4 logFC MIA PaCa-2,MIA PaCa-2 cells; 6 h,-0.2087
same,A1BG logFC MIA PaCa-2,MIA PaCa-2 cells; 6 h,0.04195
same,A1BG-AS1 logFC MIA PaCa-2,MIA PaCa-2 cells; 6 h,-0.914
same,A2LD1 logFC MIA PaCa-2,MIA PaCa-2 cells; 6 h,-0.1941
same,A4GALT logFC MIA PaCa-2,MIA PaCa-2 cells; 6 h,-0.8586
same,1/2-SBSRNA4 logFC MIA PaCa-2,MIA PaCa-2 cells; 24 h,-0.5295
same,A1BG logFC MIA PaCa-2,MIA PaCa-2 cells; 24 h,0.6604
same,A1BG-AS1 logFC MIA PaCa-2,MIA PaCa-2 cells; 24 h,-0.1194
same,A2LD1 logFC MIA PaCa-2,MIA PaCa-2 cells; 24 h,-0.3751
same,A4GALT logFC MIA PaCa-2,MIA PaCa-2 cells; 24 h,-0.2021

# — paper PMC5867665, “Targeting Multiple Effector Pathways in Pancreatic Ductal Adenocarcinoma with a G-Quadruplex-Binding Small Molecule” (Journal of Medicinal Chemistry, 2018)
